# Measurements: PMC7374640 (Nature structural & molecular biology, 2020)
# Legend:
# [1] = cited from earlier work
# insulin receptor = conditions: cited from earlier work
# [2] = biological target: human insulin receptor, isoform B (hIR, IR-B) (human) (UniProt P06213)
Substance,receptor affinity relative to native insulin (fold lower) (insulin receptor),other results
HisA8 human insulin: human insulin with ThrA8 substituted by histidine (literature),–,increase in potency on substitution of human insulin ThrA8 by histidine [1]: three-fold
des-hexapeptide(B25-B30)-[PheB24-α-carboxamide]insulin,~ 20 fold,–
des-heptapeptide(B24-B30)-[GlyB23-α-carboxamide]insulin,~ 500 fold,–
DOI with TyrB20 substitution (peptide),–,"bioactivity (insulin receptor activation assay), fold increase against DOI [2]: 5 fold"
des-pentapeptide(B26-B30)-[PheB25-α-carboxamide]insulin,native-like,–
